Tests used:
[1] = tested on: TNSALP-null (Akp2^−/−) mice, in vivo model of bone disease (WT, Het, KO); assay: MicroCT of femur cortical bone (Example 2); conditions: for Normalized bone area-cortical bone volume fraction: FIG. 17
Procedure: (§1) TNSALP-null (Akp2^−/−) mice served as an in vivo model of bone disease to analyze the effects of the iminosugar, Miglustat.
(§2) Mice were obtained, bred and genotyped as described above. Five mice of each genotype (Wild-type (WT), heterozygous (Het), and homozygous (KO)) were included in each treatment group (i.p. administration of PBS, 400 mg/kg Miglustat, and 1200 mg/kg Miglustat as described above). A total of 44 mice were analyzed (1 Akp2^−/− homozygous mouse was omitted in the PBS group). Mice were scanned using microCT and analyzed as described above. Cortical bone in the middle 20% of bone length from trochanter to distal condyles in the femur was scanned and cortical thickness and bone mineral density were obtained. Cortical thickness (Ct.Th, μm) was used as an indication of average thickness of cortical bone. Trabecular bone of the final 625 μm before the femoral growth plate was scanned.
As depicted in FIG. 14, Miglustat improved cortical thickness in heterozygous mice at 400 mg/kg. […] Cortical bone area (Ct.Ar, mm^2) was determined by dividing cortical volume by the number of slices X slice thickness. As depicted in FIG. 16, cortical bone area increased in Wild-type (WT) and Heterozygotes (Het) administered 400 mg/kg Miglustat. […] In Homozygotes administered 1,200 mg/kg normalized bone area-cortical bone volume fraction decreased.
The attenuation depended on physical density and electron density of bone. As depicted in FIG. 18, high doses of Miglustat improved tissue mineral density in Heterozygotes.

[2] = tested on: TNSALP-null (Akp2^−/−) mice (WT, KO); assay: MicroCT of trabecular bone in the lumbar vertebrae (Example 2); assay type: in vivo
Procedure: as §1, §2
In addition to microCT analysis of femurs, microCT analysis was performed on trabecular bone in the lumbar vertebrae. […] Bone volume fraction of vertebrae is the ratio of the segmented bone volume to the total volume of the region of interest.
As depicted in FIG. 30, trabecular thickness (Tb.Th, mm) increased at 400 mg/kg of Miglustat. The profile of trabecular thickness in spine without treatment is different than femoral trabecular thickness. Trabecular thickness is the mean thickness or trabeculae assessed using direct 3D methods described above.
The profile of trabecular separation in spine is different than in femoral. Trabecular separation is the mean distance between trabeculae assessed using direct 3D methods described above.
The profile and baseline number of trabeculae in spine was different than in femoral. Trabecular number is the measure of the average number of trabeculae per unit length.
As depicted in FIG. 33, structure model index decreased in homozygote mice treated with Miglustat. […] As discussed previously, SMI is an indicator of the structure of the trabeculae. SMI will be zero for parallel plates and 3 for cylindrical rods.
As depicted in FIG. 34, the connectivity density increased after treatment of homozygotes with high doses of Miglustat. As described above, connectivity density is a measure of the degree of connectivity of trabeculae normalized by total volume.
As depicted in FIG. 35, the degree of anisotropy increased with Miglustat meaning that treatment affected the orientation of trabeculae in the bone. Degree of anisotropy defines the direction and magnitude of the preferred orientation of trabeculae and uses the ratio between the maximum and minimum radii of the mean intercept length ellipsoid.

[3] = tested on: patients with Type 1 GD; conditions: cited from earlier work
[4] = tested on: TNSALP-null (Akp2^−/−) mice, in vivo model of bone disease (WT, Het, KO); assay: MicroCT of femur trabecular bone (Example 2)
Procedure: as §1, §2
Bone volume fraction is the ratio of the segmented bone volume to the total volume of the region of interest.
Trabecular thickness was measured as illustrated in FIG. 23. […] Trabecular separation is the mean distance between trabeculae assessed using direct 3D methods as illustrated in FIG. 25.
As depicted in FIG. 26, the trabecular number changed with Miglustat in both heterozygotes and homozygotes treated with Miglustat. As depicted in FIG. 27, structure model index (SMI) increased in homozygous AKP mice treated with Miglustat. […] SMI represents an indicator of the structure of the trabeculae. SMI will be zero for parallel plates and 3 for cylindrical rods.
Connectivity density is a measure of the degree of connectivity of trabeculae normalized by total volume.

[5] = tested on: TNSALP-null (Akp2^−/−) mice (WT, Het, KO); assay: X-Rays of femurs (Example 2); assay type: in vivo; conditions: 400 and 1200 mg/kg Miglustat, FIGS. 13A-13I
Procedure: FIGS. 13A-13I are X-Rays of femurs from Wild-type mice administered PBS (WT-PBS; FIG. 13A), Heterozygous mice administered PBS (Het-PBS; FIG. 13B), Homozygous mice administered PBS (KO-PBS; FIG. 13C), Wild-type mice administered 400 mg/kg Miglustat (WT-400 mg/kg; FIG. 13D), Heterozygous mice administered 400 mg/kg Miglustat (Het-400 mg/kg; FIG. 13E), Homozygous mice administered 400 mg/kg Miglustat (KO-400 mg/kg; FIG. 13F), Wild-type mice administered 1200 mg/kg Miglustat (WT-1200 mg/kg; FIG. 13G), Heterozygous mice administered […] Miglustat (Het-1200 mg/kg; FIG. 13H), Homozygous mice administered […] Miglustat (KO-1200 mg/kg; FIG. 13I) showing increased bone at primary ossification centers (arrowheads).
Full-body ventral and side-view x-rays were taken after euthanizing the mice. The left anatomical legs were dissected to obtain the femoral bones. Femurs were then frozen before being placed in 10% formalin the day prior to microCT scanning. […]
Mice were obtained, bred and genotyped as described above. […] A total of 44 mice were analyzed (1 Akp2^−/− homozygous mouse was omitted in the PBS group). Mice were scanned using microCT and analyzed as described above. […]

SMILES: CCCCN1C[C@H](O)[C@@H](O)[C@H](O)[C@H]1CO [Miglustat, (2R,3R,4R,5S)-1-butyl-2-(hydroxymethyl)piperidine-3,4,5-triol]
- Total cross sectional area inside the periosteal envelope (Tt.Ar) ([1]; Heterozygotes, 400 mg/kg, FIG. 15): slight increase
- Tissue mineral density ([1]; Heterozygotes, high doses, FIG. 18): improved
- Normalized bone area-cortical bone volume fraction ([1]; Homozygotes, 1,200 mg/kg): decreased
- Cortical bone area (Ct.Ar) ([1]; Wild-type (WT) and Heterozygotes (Het), 400 mg/kg, FIG. 16): increased
- Normalized bone area-cortical bone volume fraction ([1]; Wild-type and Heterozygotes): did not have an effect
- Cortical thickness (Ct.Th) ([1]; heterozygous mice, 400 mg/kg, FIG. 14): improved
- Trabecular thickness (Tb.Th), lumbar vertebrae ([2]; 400 mg/kg, FIG. 30): increased
- Trabecular separation (Tb.Sp), lumbar vertebrae ([2]; FIG. 31): increased proportional to dose
- Trabecular number (Tb.N), lumbar vertebrae ([2]; FIG. 32): did not change significantly
- Degree of anisotropy (DA), lumbar vertebrae ([2]; FIG. 35): increased
- Structure model index (SMI), lumbar vertebrae ([2]; homozygote mice, FIG. 33): decreased
- Connectivity density (Conn. D), lumbar vertebrae ([2]; homozygotes, high doses, FIG. 34): increased
- Overall bone volume (bone volume fraction), lumbar vertebrae ([2]; homozygotes, FIG. 29): not significantly increased
- BMD [3]: increased
- Bone pain [3]: alleviated
- Trabecular separation (Tb.Sp), femur ([4]; FIG. 24): decrease
- Appearance of trabeculae (microCT images) ([4]; Homozygotes (KO), 400 and 1200 mg/kg, FIGS. 20A-20D): restore the appearance of narrow trabeculae
- Overall bone volume (bone volume fraction), femur ([4]; after treatment, FIG. 21): not significantly increased
- Trabecular number (Tb.N), femur ([4]; heterozygotes and homozygotes, FIG. 26): changed
- Connectivity density (Conn. D), femur ([4]; heterozygotes or homozygotes, FIG. 28): did not change
- Trabecular thickness (Tb.Th), femur ([4]; homozygotes, FIG. 22): lower
- Structure model index (SMI), femur ([4]; homozygous AKP mice, FIG. 27): increased
- Bone at primary ossification centers (X-Rays of femurs) [5]: increased
